Experimental data reported in patent publication US8119681B2, “2-[1-phenyl-5-hydroxy or methoxy-4alpha-methyl-hexahydrocyclopenta [ƒ]indazole-5-YL]ethyl phenyl derivatives as glucocorticoid receptor ligands” (Merck Sharp & Dohme Corp., priority 2006, dated 2012).

What was measured:
human GR [1] = biological target: T1, human GR (Homo sapiens, UniProt P04150); assay: Trans-Activation Modulation of Glucocorticoid Receptor (GRAMMER), MMTV-LUC reporter gene; assay type: cell-based; set-up: endogenous in cells; details: for Emax: A549; for EC50: A549 cells, IP = inflection point
T1 sequence (P04150 1-777): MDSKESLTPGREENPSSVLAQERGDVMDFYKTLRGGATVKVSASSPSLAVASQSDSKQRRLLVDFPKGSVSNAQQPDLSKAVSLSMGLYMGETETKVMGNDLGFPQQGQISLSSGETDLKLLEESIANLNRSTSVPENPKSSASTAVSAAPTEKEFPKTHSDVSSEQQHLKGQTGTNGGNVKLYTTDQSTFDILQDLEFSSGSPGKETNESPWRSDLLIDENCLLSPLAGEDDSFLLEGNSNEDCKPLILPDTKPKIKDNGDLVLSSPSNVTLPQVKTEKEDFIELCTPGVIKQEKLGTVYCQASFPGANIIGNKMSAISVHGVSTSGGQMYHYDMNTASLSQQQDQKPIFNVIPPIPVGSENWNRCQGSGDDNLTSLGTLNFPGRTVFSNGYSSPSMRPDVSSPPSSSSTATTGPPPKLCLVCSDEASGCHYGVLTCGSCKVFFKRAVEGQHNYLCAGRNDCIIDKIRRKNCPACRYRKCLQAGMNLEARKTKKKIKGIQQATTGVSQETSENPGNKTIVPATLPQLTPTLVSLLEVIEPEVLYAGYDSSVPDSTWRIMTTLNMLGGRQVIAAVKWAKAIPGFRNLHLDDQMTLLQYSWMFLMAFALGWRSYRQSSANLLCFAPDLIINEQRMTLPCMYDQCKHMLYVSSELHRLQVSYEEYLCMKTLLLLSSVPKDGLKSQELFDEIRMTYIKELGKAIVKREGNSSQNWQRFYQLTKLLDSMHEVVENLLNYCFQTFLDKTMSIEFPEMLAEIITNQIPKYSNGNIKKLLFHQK

human GR [2] = biological target: T1, human GR; assay: Transrepression Assay (GITAR), TNFα-β-lactamase reporter gene in U937 cells; assay type: cell-based; set-up: U937 cells contain an endogenous glucocorticoid receptor (GR); endogenous in cells; host or cells: U937 cells stably transfected with the TNF-α promoter/β-lactamase reporter only; details: for EC50: IP = inflection point; for GITAR > GRAMM % SEP: separation of GITAR Emax over GRAMMER Emax; for Emax: U-937
Method in brief: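 Reporter readout used CCF2-AM loading for 70–90 min at room temperature after overnight (~18 h, 37 °C) PMA (5 ng/ml final) and LPS (100 ng/ml final) stimulation of compound-treated (30–45 min) TNFα-β-lactamase U937 cells expressing native GR. Activity was normalised to 100 nM dexamethasone repression.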

[3] = read-out: Transactivation A549 Cells GRAMMER Emax (%)
[4] = Table 1, read-out: Transactivation A549 Cells GRAMMER IP
[5] = Table 1, U937 cells, read-out: Transrepression U937 Cells GITAR IP
[6] = 100 nM dexamethasone = 100% activity, read-out: maximal activity in the transrepression assay
[7] = Table 1, U937 cells, activity repressed by 100 nM dexamethasone = 100%, read-out: Transrepression U937 Cells GITAR Emax (%)
[8] = read-out: Transactiviation A549 Cells GRAMMER Emax (%)
[9] = Table 2, read-out: Transactiviation A549 Cells GRAMMER IP
[10] = Table 2, U937 cells, read-out: Transactiviation U937 Cells GITAR IP
[11] = Table 2, U937 cells, activity repressed by 100 nM dexamethasone = 100%, read-out: Transactiviation U937 Cells GITAR Emax (%)

| Structure (SMILES) | Emax (human GR [1]; [3]) | EC50 (human GR [1]; [4]) | EC50 (human GR [2]; [5]) | GITAR > GRAMM % SEP (human GR [2]; Table 1) | Emax (human GR [2]; [6]) | Emax (human GR [2]; [7]) | Emax (human GR [1]; [8]) | EC50 (human GR [1]; [9]) | EC50 (human GR [2]; [10]) | GITAR > GRAMM % SEP (human GR [2]; Table 2) | Emax (human GR [2]; [11]) |
| --- | --- | --- | --- | --- | --- | --- | --- | --- | --- | --- | --- |
| CCCNC(=O)c1c(F)cccc1CC[C@]1(O)CCC2=Cc3c(cnn3-c3ccc(F)cc3)C[C@@]21C [Example 49, 2-fluoro-6-{2-[(4αS,5R)-1-(4-fluorophenyl)-5-hydroxy-4α-methyl-1,4,4α,5,6,7-hexahydrocyclopenta[f]indazol-5-yl]ethyl}-N-propylbenzamide] | 25% | 26 nM | 30 nM | 47% | 5 to 100% | 72% | – | – | – | – | – |
| CCNC(=O)c1ccccc1CC[C@]1(O)CCC2=Cc3c(cnn3-c3ccc(F)c(F)c3)C[C@@]21C [Example 51, 2-{2-[(4αS,5R)-1-(3,4-difluorophenyl)-5-hydroxy-4α-methyl-1,4,4α,5,6,7-hexahydrocyclopenta[f]indazol-5-yl]ethyl}-N-ethylbenzamide] | 30% | 164 nM | 193 nM | 42% | 5 to 100% | 73% | – | – | – | – | – |
| COC(=O)C(C)(C)NC(=O)c1ccccc1CC[C@]1(O)CCC2=Cc3c(cnn3-c3ccc(F)cc3)C[C@@]21C [Example 52, methyl N-(2-{2-[(4αS,5R)-1-(4-fluorophenyl)-5-hydroxy-4α-methyl-1,4,4α,5,6,7-hexahydrocyclopenta[f]indazol-5-yl]ethyl}benzoyl)-2-methylalaninate] | 45% | 21 nM | 154 nM | 29% | 5 to 100% | 74% | – | – | – | – | – |
| CC(C)(C)CNC(=O)c1c(F)cccc1CC[C@]1(O)CCC2=Cc3c(cnn3-c3ccc(F)cc3)C[C@@]21C [Example 55, N-(2,2-dimethylpropyl)-2-fluoro-6-{2-[(4αS,5R)-1-(4-fluorophenyl)-5-hydroxy-4α-methyl-1,4,4α,5,6,7-hexahydrocyclopenta[f]indazol-5-yl]ethyl}benzamide] | 23% | 173 nM | 187 nM | 53% | 5 to 100% | 76% | – | – | – | – | – |
| C=CCNC(=O)c1c(F)cccc1CC[C@]1(O)CCC2=Cc3c(cnn3-c3ccc(F)cc3)C[C@@]21C [Example 57, N-allyl-2-fluoro-6-{2-[(4αS,5R)-1-(4-fluorophenyl)-5-hydroxy-4α-methyl-1,4,4α,5,6,7-hexahydrocyclopenta[f]indazol-5-yl]ethyl}benzamide] | 37% | 24 nM | 30 nM | 40% | 5 to 100% | 77% | – | – | – | – | – |
| COc1ccccc1CC[C@]1(O)CCC2=Cc3c(cnn3-c3ccc(F)cc3)C[C@@]21C [Example 58 WO 2004/075840 A2, reference compound] | – | – | – | – | – | – | 28% | 397 nM | 642 nM | 14% | 42% |
| CC(C)(C)NC(=O)c1c(F)cccc1CC[C@]1(O)CCC2=Cc3c(cnn3-c3ccc(F)cc3)C[C@@]21C [Example 59, N-(tert-butyl)-2-fluoro-6-{2-[(4αS,5R)-1-(4-fluorophenyl)-5-hydroxy-4α-methyl-1,4,4α,5,6,7-hexahydrocyclopenta[f]indazol-5-yl]ethyl}benzamide] | 40% | 108 nM | 95 nM | 37% | 5 to 100% | 77% | – | – | – | – | – |
| CC(C)CNC(=O)c1c(F)cccc1CC[C@]1(O)CCC2=Cc3c(cnn3-c3ccc(F)cc3)C[C@@]21C [Example 61, 2-fluoro-6-{2-[(4αS,5R)-1-(4-fluorophenyl)-5-hydroxy-4α-methyl-1,4,4α,5,6,7-hexahydrocyclopenta[f]indazol-5-yl]ethyl}-N-isobutylbenzamide] | 35% | 86 nM | 83 nM | 44% | 5 to 100% | 79% | – | – | – | – | – |
| CC(C)(C)NC(=O)c1ccccc1CC[C@]1(O)CCC2=Cc3c(cnn3-c3ccc(F)cc3)C[C@@]21C [Example 62, N-(tert-butyl)-2-{2-[(4αS,5R)-1-(4-fluorophenyl)-5-hydroxy-4α-methyl-1,4,4α,5,6,7-hexahydrocyclopenta[f]indazol-5-yl]ethyl}benzamide] | 23% | 212 nM | 246 nM | 56% | 5 to 100% | 79% | – | – | – | – | – |
| C[C@]12Cc3cnn(-c4ccc(F)cc4)c3C=C1CC[C@@]2(O)CCc1ccccc1F [Example 70 WO 2004/075840 A2, reference compound] | – | – | – | – | – | – | 144% | 215 nM | 175 nM | −62% | 83% |
| CC(C)S(=O)(=O)NCc1c(F)cccc1CC[C@]1(O)CCC2=Cc3c(cnn3-c3ccc(F)cc3)C[C@@]21C [Example 83, N-(2-fluoro-6-{2-[(4αS,5R)-1-(4-fluorophenyl)-5-hydroxy-4α-methyl-1,4,4α,5,6,7-hexahydrocyclopenta[f]indazol-5-yl]ethyl}benzyl)propane-2-sulfonamide] | 21% | 70 nM | 94 nM | 33% | 5 to 100% | 54% | – | – | – | – | – |
| CCS(=O)(=O)NCc1c(F)cccc1CC[C@]1(O)CCC2=Cc3c(cnn3-c3ccc(F)cc3)C[C@@]21C [Example 84, N-(2-fluoro-6-{2-[(4αS,5R)-1-(4-fluorophenyl)-5-hydroxy-4α-methyl-1,4,4α,5,6,7-hexahydrocyclopenta[f]indazol-5-yl]ethyl}benzyl)ethanesulfonamide] | 23% | 50 nM | 96 nM | 37% | 5 to 100% | 60% | – | – | – | – | – |
| C[C@]12Cc3cnn(-c4ccc(F)cc4)c3C=C1CC[C@@]2(O)CCc1cccc(F)c1CNS(=O)(=O)C(Cl)Cl [Example 85, 1,1-dichloro-N-(2-fluoro-6-{2-[(4αS,5R)-1-(4-fluorophenyl)-5-hydroxy-4α-methyl-1,4,4α,5,6,7-hexahydrocyclopenta[f]indazol-5-yl]ethyl}benzyl)methanesulfonamide] | 19% | 94 nM | 182 nM | 44% | 5 to 100% | 63% | – | – | – | – | – |
| C[C@]12Cc3cnn(-c4ccc(F)cc4)c3C=C1CC[C@@]2(O)CCc1cccc(F)c1CNS(=O)(=O)CC(F)(F)F [Example 86, 2,2,2-trifluoro-N-(2-fluoro-6-{2-[(4αS,5R)-1-(4-fluorophenyl)-5-hydroxy-4α-methyl-1,4,4α,5,6,7-hexahydrocyclopenta[f]indazol-5-yl]ethyl}benzyl)ethanesulfonamide] | 13% | 211 nM | 246 nM | 53% | 5 to 100% | 66% | – | – | – | – | – |
| C[C@]12Cc3cnn(-c4ccc(F)cc4)c3C=C1CC[C@@]2(O)CCc1cccc(F)c1CNS(=O)(=O)C1CC1 [Example 88, N-(2-fluoro-6-{2-[(4αS,5R)-1-(4-fluorophenyl)-5-hydroxy-4α-methyl-1,4,4α,5,6,7-hexahydrocyclopenta[f]indazol-5-yl]ethyl}benzyl)cyclopropanesulfonamide] | 32% | 53 nM | 90 nM | 37% | 5 to 100% | 69% | – | – | – | – | – |
